As usually defined, the Cmax is the maximum level reached in the sampled fluid or tissue. By EC50 is commonly meant the concentration giving half of the maximal effect.

For data set [1] the following is noted: cells marked g; ref Staples et al. 1998; cited from earlier work.
The test system of data set [2] is zebrafish. As to conditions: cited from earlier work.
Data set [3] can be described thus: In vitro biotransformation rate, rainbow trout liver S9 (OECD TG 319). The format is in vitro ADME. As to conditions: for CLin vivo,int (in vivo intrinsic clearance): from measured S9 clearance, transformed as suggested by Nichols et al.; for CL (clearance rate): in vitro incubation with rainbow trout liver S9, assuming 163 mg S9 protein/g liver. Here is the method:
In brief, rainbow trout liver S9 homogenate was preincubated in buffer and cofactors, followed by 120 min of incubation with bisphenol. From each duplicate, 50 μL of subsamples was taken at timepoints 0, 2, 5, 15, 30, 60, 90, and 120 min and mixed with 200 μL of ice-cold methanol. The protocol of the procedure is described further in Section 2.
1042. Biotransformation rate estimation methodology
106Trinova Biochem; Lot: 180216) was pre-incubated at 11°C in K 2HPO4/KH2PO4 buffer
107(pH=7.8; 1 mL final volume) containing alamethicin from Trichoderma viride (25 μg/mL), and
108cofactors NADPH (2 mM), UDPGA (2 mM), GSH (5 mM), and PAPS (0.1 mM). After 10 min
109of preincubation, biotransformation was started by adding 5 µL of bisphenol test compound
110dissolved in methanol (1 µM final concentration). […]

Data set [4] has as its system zebrafish. As to conditions: cited from earlier work. The source holds these as a separate data set.
Data set [5] addresses Estrogen receptor (ER). Further details: method as in Tox21. The conditions noted are these: ATG ERE CIS up assay; ref Tox21; cited from earlier work.
For data set [6], the target named is Estrogen receptor (ER). Further details: method as in Tox21. The conditions noted are these: ATG Era Trans up assay; ref Tox21; cited from earlier work.
The target in data set [7] is Estrogen receptor (ER). Further details: method as in Kitamura et al. 2005. As to conditions: ERE-luciferase reporter assay, MCF-7 cells; ref Kitamura et al. 2005; cited from earlier work. For orientation: Reporter assays use an easily measured gene product as a stand-in for the process of interest.
For data set [8] the following is noted: measured human values; ref CompTox Dashboard; cited from earlier work.
The mark [9] stands for this setting: metabolite, Female, whole body, Observed, ref Shi et al. 2016.
Setting [10] is: metabolite, Male, whole body, Observed, ref Shi et al. 2016.
[11] abbreviates: metabolite, Female, whole body, Observed, ref Lindholst et al. 2003.
[12] abbreviates: 20 μg/L, female, liver, observed, ref Shi et al. 47.
[13] abbreviates: 20 μg/L, female, ovaries, observed, ref Shi et al. 47.
Setting [14] is: 20 μg/L, female, whole body, observed, ref Shi et al. 47.
Where [15] appears, read: 20 μg/L, male, liver, observed, ref Shi et al. 47.
[16] abbreviates: 20 μg/L, male, testes, observed, ref Shi et al. 47.
[17] abbreviates: 20 μg/L, male, whole body, observed, ref Shi et al. 47.

Where a name gives a salt, the structure may show the parent alone. Read-outs that look alike come from different tables or passages of the source.

Turning to `O=C(O)[C@H]1O[C@@H](Oc2ccc(C(c3ccc(O)cc3)(C(F)(F)F)C(F)(F)F)cc2)[C@H](O)[C@@H](O)[C@@H]1O` [BPAF-GA, BPAF glucuronic acid], the Ratio blood-plasma in data set [1] was 1.00. Also, the figures for the AUC in data set [2] (setting [9]) and in data set [2] (setting [10]) were 6.54 µg/g/day and 3.54 µg/g/day, respectively. The values for the highest concentration (Cmax) in data set [2] (setting [9]) and in data set [2] (setting [10]) were 1.09 µg/g and 0.60 µg/g, respectively.
Turning to `Cc1cc(C(C)(C)c2ccc(O)c(C)c2)ccc1O` [BPC, bisphenol C], the CL in data set [3] (both series combined) is listed as 1.03 mL/(h x mg). In data set [3], the “CLin vivo,int (in vivo intrinsic clearance)” value (from here on “CLin vivo,int”) worked out at 60.6 L/d/Kg fish and the “CL (clearance rate)” value is given as 4.04 × 10^3 mL/d/g liver. Besides, in data set [3] (series 1 (s1)), the CL is recorded as 1.01 mL/(h x mg) and the “k (first-order disappearance rate constant)” value was 1.03 h⁻¹. Besides, in data set [3] (series 2 (s2)), the CL is recorded as 1.05 mL/(h x mg) and the “k (first-order disappearance rate constant)” value came to 1.05 h⁻¹.
For the compound BPA glucuronic acid [BPA-GA], in data set [1], the Ratio blood-plasma was 1.00. In data set [4] (setting [11]), the AUC is 109 µg/g/day, the Cmax was 16.2 µg/g and the t1/2 is on record as 8.16 days.
For the compound `CC(c1ccccc1)(c1ccc(O)cc1)c1ccc(O)cc1` [BPAP, bisphenol AP], the half-maximal effective concentration (EC50) in data set [5] was 290 nM; in data set [6], 120 nM. Moreover, the results for the CL in data set [3] (both series combined), in data set [3] (series 1 (s1)) and in data set [3] (series 2 (s2)) were 1.80 mL/(h x mg), 1.79 mL/(h x mg) and 1.82 mL/(h x mg), respectively. Moreover, the “CLin vivo,int” value in data set [3] worked out at 106 L/d/Kg fish. In addition, the “CL (clearance rate)” value in data set [3] is recorded as 7.06 × 10^3 mL/d/g liver. Besides, the “k (first-order disappearance rate constant)” value in data set [3] (series 1 (s1)) amounted to 1.73 h⁻¹; in data set [3] (series 2 (s2)), 1.74 h⁻¹.
On to `CC(C)(c1ccc(O)cc1)c1ccc(OS(=O)(=O)O)cc1` [BPA sulfate], for which, in data set [4] (zebrafish, in vivo), the “concentrations relative to those of the glucuronide” value was 1000 times lower.
Take `O=S(=O)(c1ccc(O)cc1)c1ccc(O)cc1` [BPS, bisphenol S]: the results for the EC50 in data set [5], in data set [7] and in data set [6] were 1420 nM, 1100 nM and 800 nM, respectively. Moreover, the “k (first-order disappearance rate constant)” value in data set [3] (series 1 (s1)) was determined as 0.41 h⁻¹; in data set [3] (series 2 (s2)), 0.48 h⁻¹.
Take `Oc1ccc(C(c2ccc(O)cc2)(C(F)(F)F)C(F)(F)F)cc1` [BPAF, bisphenol AF]: the “Funbound (plasma fraction unbound)” value in data set [8] is listed as 0.010. The CL in data set [3] (both series combined) is on record as 0.78 mL/(h x mg); in data set [3] (series 1 (s1)), 0.75 mL/(h x mg); in data set [3] (series 2 (s2)) it was 0.80 mL/(h x mg). In data set [3], the “CLin vivo,int” value was found to be 45.5 L/d/Kg fish. The “CL (clearance rate)” value in data set [3] is 3.04 × 10^3 mL/d/g liver. For the same compound, the “k (first-order disappearance rate constant)” value in data set [3] (series 1 (s1)) turned out to be 0.73 h⁻¹; in data set [3] (series 2 (s2)), 0.78 h⁻¹. The AUC is 1.38 µg/g/day in data set [2] (setting [12]); 1.50 µg/g/day in data set [2] (setting [13]); 0.8 µg/g/day in data set [2] (setting [14]); 4.93 µg/g/day in data set [2] (setting [15]); 3.23 µg/g/day in data set [2] (setting [16]); 1.25 µg/g/day in data set [2] (setting [17]). In addition, the BCF in data set [2] (setting [12]) is given as 11.9; in data set [2] (setting [13]), 10.9; in data set [2] (setting [14]) it was 7.04; in data set [2] (setting [15]), 40.5; in data set [2] (setting [16]), 27.5; in data set [2] (setting [17]), 9.80. Further, the maximum concentration (Cmax) was 0.24 µg/g in data set [2] (setting [12]); 0.22 µg/g in data set [2] (setting [13]); 0.14 µg/g in data set [2] (setting [14]); 0.81 µg/g in data set [2] (setting [15]); 0.55 µg/g in data set [2] (setting [16]); 0.20 µg/g in data set [2] (setting [17]). The t1/2 is 8.52 days in data set [2] (setting [12]); 7.92 days in data set [2] (setting [13]); 4.99 days in data set [2] (setting [14]); 25.4 days in data set [2] (setting [15]); 0.85 days in data set [2] (setting [16]); 3.58 days in data set [2] (setting [17]).

Source of the values: publication PMC9301920, “Physiologically Based Toxicokinetic Modeling of Bisphenols in Zebrafish (Danio rerio) Accounting for Variations in Metabolic Rates, Brain Distribution, and Liver Accumulation” (Environmental Science & Technology, 2022).
